≈ marks a conversion by molar mass, not a printed value.
How the values were obtained:
HCT-116 cells = test: MTT cytotoxicity assay, HCT-116; format: cell-based, human; details: for IC50: Homo sapiens, MTT
Method: (§1) Cytotoxicity property of Dis against HCT-116 and CCD-841 cells were measured by MTT assay as described by Mossman[77]. Briefly, cells were treated with different concentration of Dis and 5-Fu (positive control) with serial dilution factor of 2 for 8 concentrations in 96 well-plate for different time points (24 h, 48 h and 72 h). Subsequently at the end of each time point 20 µl of MTT (5 mg/ml, Affymetrix,Cleveland, OH, USA) were added to each well followed by 4 h incubation. The solutions were aspirated after 4 h and 100 µl of DMSO were added to each well. Absorbance for each well was read at 570 nm as measured by using microplate reader (Tecan Infinite multimode, Männedorf, Switzerland). Cytotoxicity (cell death) was measured by using the following formula: Celldeath(%)=sampleOD−controlOD/controlOD100
(§2) This assay was performed in triplicates in three independent experiments. The cytotoxicity property of Dis was presented as IC50 value.

CCD-841 cells = test: MTT cytotoxicity assay, CCD-841 normal colon cells; format: cell-based; details: Homo sapiens, CCD-841 non cancerous cells
Method: as §1, §2

HT-29 cells = test: MTT cytotoxicity assay, HT-29; format: cell-based, human; details: for IC50: Homo sapiens, MTT
Method: [Worded in the source for another cell line; this cell line is reported under the same test.] as §1, §2

Compound: O=c1[nH]cc(F)c(=O)[nH]1 [5-FU, 5-Fluorouracil, reference compound]
- IC50 (HCT-116 cells; HCT-116, 24 h): 5.43 ± 0.48 µg/mL (≈ 41.7 µM)
- IC50 (HCT-116 cells; HCT-116, 48 h): 3.07 ± 0.34 µg/mL (≈ 23.6 µM)
- IC50 (HCT-116 cells; HCT-116, 72 h): 1.47 ± 0.4 µg/mL (≈ 11.3 µM)
- Selectivity Index (SI) (HCT-116 cells; IC50 CCD-841 / IC50 HCT-116, 24 h): 36.27
- Selectivity Index (SI) (HCT-116 cells; IC50 CCD-841 / IC50 HCT-116, 48 h): 9.23
- Selectivity Index (SI) (HCT-116 cells; IC50 CCD-841 / IC50 HCT-116, 72 h): 9.85
- IC50 (CCD-841 cells; 24 h): 197 ± 14.7 µg/mL (≈ 1510 µM)
- IC50 (CCD-841 cells; 48 h): 28.3 ± 0.67 µg/mL (≈ 218 µM)
- IC50 (CCD-841 cells; 72 h): 14.5 ± 0.68 µg/mL (≈ 111 µM)
- IC50 (HT-29 cells; HT-29, 24 h): 10.3 ± 2.7 µg/mL (≈ 79 µM)
- IC50 (HT-29 cells; HT-29, 48 h): 10.5 ± 1.3 µg/mL (≈ 80.6 µM)
- IC50 (HT-29 cells; HT-29, 72 h): 2.24 ± 0.53 µg/mL (≈ 17.2 µM)
- Selectivity Index (SI) (HT-29 cells; IC50 CCD-841 / IC50 HT-29, 24 h): 19.15
- Selectivity Index (SI) (HT-29 cells; IC50 CCD-841 / IC50 HT-29, 48 h): 2.7
- Selectivity Index (SI) (HT-29 cells; IC50 CCD-841 / IC50 HT-29, 72 h): 6.46
